The source of these data is patent US10494332B2, “Protein tyrosine phosphatases or SHP2 inhibitors and uses thereof” (Indiana University Research and Technology Corporation, priority 2015, dated 2019).

The target in assay [1] is T1, SHP2 (Homo sapiens, UniProt Q06124).
T1 sequence (Q06124 224-528): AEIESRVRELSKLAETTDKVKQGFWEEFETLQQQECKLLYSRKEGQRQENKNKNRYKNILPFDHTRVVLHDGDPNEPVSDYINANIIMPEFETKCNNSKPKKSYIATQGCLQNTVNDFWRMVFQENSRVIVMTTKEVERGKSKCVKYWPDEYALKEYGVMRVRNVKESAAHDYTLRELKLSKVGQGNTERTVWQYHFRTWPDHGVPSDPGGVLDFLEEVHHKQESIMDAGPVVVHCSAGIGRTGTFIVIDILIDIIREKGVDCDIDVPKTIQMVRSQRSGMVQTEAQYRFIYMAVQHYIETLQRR
In words: SHP2 phosphatase inhibition assay (pNPP). It is filed as biochemical.

Assay [2] relates to H1975 non-small cell lung cancer (NSCLC) cell line. In words: MTT cell proliferation assay. It is filed as cell-based, human. As to conditions: 20 μM and 40 μM, 2 days. As for the experimental part: (§1) Human non-small cell lung carcinoma cell line H1975 was cultured at 37° C. and 5% CO2 in RPMI-1640 (Corning) supplemented with 10% fetal bovine serum (HyClone). Human breast cancer cell line MDA-MB-231 was cultured in DMEM supplemented with 10% fetal bovine serum. For cell proliferation assay, 2˜3×10^3 cells were seeded in each well of 96-well plates. After treating cells with compounds for 2 days, cells were incubated with 50 μg/ml MTT (3-(4,5-Dimethylthiazol-2-yl)-2,5-diphenyltetrazolium bromide) for ˜3-4 hours. Then, the culture medium was removed, DMSO was added to dissolve the formazan crystals. Wells containing only media were used for background correction. The optical density was measured spectrophotometrically at 540 nm. For signaling analysis, cells were serum-starved overnight followed by treatment with vehicle or compounds for 3 hours, and then either left un-stimulated or stimulated with 5 μg/ml EGF or 10 nM PMA (Sigma) for indicated time. Cells were lysed and the lysates were electrophoresed on a 10% polyacrylamide gel, and then transferred to a nitrocellulose membrane, and probed with anti-phospho-ERK1/2 and anti-ERK1/2 (Cell Signaling) antibodies followed by incubation with horseradish peroxidase-conjugated secondary antibodies. The blots were developed by the enhanced chemiluminescence technique using the SuperSignal West Pico Chemiluminescent substrate (Pierce).

Assay [3] deals with MDA-MB-231 breast cancer cell line. In words: MTT cell proliferation assay. The format is cell-based, human. As to conditions: 20 μM and 40 μM, 2 days. As to the method:
as §1

For assay [4], the system named is EGF-mediated ERK1/2 phosphorylation in H1975 cells. The assay can be described thus: EGF-induced ERK1/2 phosphorylation immunoblot. The format is cell-based, human. The conditions noted are these: compound 7 at 40 μM. As for the experimental part: as §1
In assay [5] the test system is PMA-stimulated ERK1/2 phosphorylation. In words: PMA-induced ERK1/2 phosphorylation immunoblot. It is filed as cell-based, human. As to the method: as §1
For assay [6], the system named is SKBR3 cells. The assay can be described thus: Cell growth in 3D Matrigel. It is filed as cell-based. As to conditions: 5 days. As to the method:
(§2) Approximately 300,000 SKBR3 cells were seeded into 150 μL of growth factor reduced Matrigel (BD) that was then covered with 2 mLs of media containing either 20 μL vehicle (DMSO) or the indicated concentrations of compound 2. Cells were then imaged at 24-hour intervals using a NIKON SMZ1500 stereomicroscope. After 5 days the cells were recovered from the Matrigel by the following method. Media was aspirated and cells were washed with 500 μL of cold PBS. 150 μL of RIPA lysis buffer supplemented with ProteCEASE-50. EDTA Free protease inhibitors (GBiosciences) was added to the Matrigel. Cells were scraped into a slurry and instantly frozen using dry ice for 5 minutes. After thawing tubes were spun down at 4° C. for 10 minutes at 14K rpm. Proteins were then resolved by SDS-PAGE and the relative levels of total and phospho-ERK1/2 were detected by immunoblot analysis.

Assay [7] concerns ERK1/2 phosphorylation in SKBR3 cells. The assay can be described thus: ERK1/2 immunoblot of cells recovered from Matrigel. It is filed as cell-based. The conditions noted are these: 5 days. As to the method:
as §2

Assay [8] addresses PTPμ (Homo sapiens, UniProt P28827). The assay can be described thus: biochemical.
The target in assay [9] is T2, PP5 (Homo sapiens, UniProt P53041).
T2 sequence (P53041 1-499): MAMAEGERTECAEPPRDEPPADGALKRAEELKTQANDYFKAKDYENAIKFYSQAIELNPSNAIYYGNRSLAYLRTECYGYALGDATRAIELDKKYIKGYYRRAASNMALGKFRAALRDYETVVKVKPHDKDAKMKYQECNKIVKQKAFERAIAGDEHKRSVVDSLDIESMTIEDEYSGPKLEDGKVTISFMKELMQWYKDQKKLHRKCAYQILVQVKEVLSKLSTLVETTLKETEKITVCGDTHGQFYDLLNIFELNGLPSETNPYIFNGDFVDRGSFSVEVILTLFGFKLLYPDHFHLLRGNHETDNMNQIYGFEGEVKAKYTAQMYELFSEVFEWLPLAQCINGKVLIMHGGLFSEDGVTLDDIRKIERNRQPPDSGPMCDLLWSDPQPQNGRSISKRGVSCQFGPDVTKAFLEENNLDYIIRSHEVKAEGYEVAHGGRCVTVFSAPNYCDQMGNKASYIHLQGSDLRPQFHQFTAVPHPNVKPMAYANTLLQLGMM
In words: biochemical.

Entries after “also recorded” stand apart in the source; their conditions may differ. Where only a bound is given, the exact number is not on record here.

PTPμ, sequence (P28827 21-1452): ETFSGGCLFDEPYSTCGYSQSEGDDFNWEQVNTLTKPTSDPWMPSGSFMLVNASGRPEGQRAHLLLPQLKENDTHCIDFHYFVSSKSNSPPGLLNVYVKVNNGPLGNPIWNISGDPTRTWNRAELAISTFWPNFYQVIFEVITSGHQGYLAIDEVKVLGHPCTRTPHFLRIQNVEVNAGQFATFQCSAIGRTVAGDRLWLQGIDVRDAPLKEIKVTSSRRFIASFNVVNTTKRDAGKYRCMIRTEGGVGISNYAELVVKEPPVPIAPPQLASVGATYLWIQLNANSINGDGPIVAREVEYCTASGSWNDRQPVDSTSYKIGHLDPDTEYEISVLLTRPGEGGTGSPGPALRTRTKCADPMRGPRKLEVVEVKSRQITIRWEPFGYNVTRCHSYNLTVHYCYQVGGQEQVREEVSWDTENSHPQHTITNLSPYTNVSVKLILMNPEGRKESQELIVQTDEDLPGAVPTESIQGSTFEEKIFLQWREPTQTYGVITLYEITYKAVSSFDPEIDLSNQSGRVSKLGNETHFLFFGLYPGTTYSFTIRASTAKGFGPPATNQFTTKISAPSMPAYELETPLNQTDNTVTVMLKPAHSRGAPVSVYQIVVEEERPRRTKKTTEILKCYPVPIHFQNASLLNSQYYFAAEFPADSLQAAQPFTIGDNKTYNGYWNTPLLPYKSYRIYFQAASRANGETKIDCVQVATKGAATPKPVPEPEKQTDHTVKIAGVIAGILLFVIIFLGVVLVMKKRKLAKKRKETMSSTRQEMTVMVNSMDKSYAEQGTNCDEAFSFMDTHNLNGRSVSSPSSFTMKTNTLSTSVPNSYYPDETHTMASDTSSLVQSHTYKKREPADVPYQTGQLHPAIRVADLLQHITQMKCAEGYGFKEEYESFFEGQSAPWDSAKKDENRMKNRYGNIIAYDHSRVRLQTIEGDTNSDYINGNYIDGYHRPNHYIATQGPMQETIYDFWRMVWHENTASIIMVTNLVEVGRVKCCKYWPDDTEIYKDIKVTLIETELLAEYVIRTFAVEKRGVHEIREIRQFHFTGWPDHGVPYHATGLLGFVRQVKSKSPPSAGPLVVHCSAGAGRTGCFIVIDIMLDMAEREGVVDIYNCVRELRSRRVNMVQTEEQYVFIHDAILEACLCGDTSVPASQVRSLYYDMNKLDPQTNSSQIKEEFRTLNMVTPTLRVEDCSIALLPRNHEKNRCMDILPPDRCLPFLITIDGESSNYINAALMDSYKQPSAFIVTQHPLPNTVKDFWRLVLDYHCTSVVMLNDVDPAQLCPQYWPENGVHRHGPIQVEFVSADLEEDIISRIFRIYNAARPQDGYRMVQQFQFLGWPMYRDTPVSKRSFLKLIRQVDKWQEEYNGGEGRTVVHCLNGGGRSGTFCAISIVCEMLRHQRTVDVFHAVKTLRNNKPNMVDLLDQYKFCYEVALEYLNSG

For the molecule `O=C(Nc1ccc(I)cc1)C(=O)Nc1ccc(NC(=O)C(c2ccccc2)S(=O)(=O)O)cc1` (stereo not drawn) [Compound 2, 2-((4-(2-((4-iodophenyl)amino)-2-oxoacetamido)phenyl)amino)-2-oxo-1-phenylethanesulfonic acid], the IC50 in assay [1] (Example 9: SHP2 catalytic domain 20 nM, pNPP 3 mM, pH 7.0, 25° C., read-out: IC50 SHP2) is 1.51 ± 0.06 µM; in assay [8], more than 10 µM; in assay [9], more than 10 µM. Moreover, the “Fold selectivity for SHP2 against PTPs examined” value in assay [1] (cefsulodin: with the exception of SHP1) was “at least 4 fold”. Further, the “H1975 cell proliferation (MTT)” value in assay [2] is “reduce H1975 cell proliferation in a dose dependent manner; also recorded: dose dependently inhibited; also recorded: significantly (**p<0.01) reduced cell proliferation”. Besides, the “MDA-MB-231 cell survival/growth (MTT)” value in [3] is recorded as “dose dependently inhibited; also recorded: significantly (**p<0.01) reduced cell survival”. Moreover, the “Effect on EGF-mediated ERK1/2 phosphorylation” value in assay [4] was “reduced EGF-mediated ERK1/2 phosphorylation in a dose-dependent manner; also recorded: decrease the EGF-mediated ERK1/2 phosphorylation in a dose dependent manner”. The “Effect on PMA-stimulated ERK1/2 phosphorylation” value in [5] was “no effect on PMA-stimulated ERK1/2 phosphorylation”. The “SKBR3 cell growth in Matrigel” value is “partial inhibition” in assay [6] (20 μM) and “almost completely absent” in [6] (40 μM). Moreover, the “ERK1/2 activity in SKBR3 cells in Matrigel” value in [7] (20 μM) was “partial inhibition”; in [7] (40 μM) it was “barely detectable”.
